Test results as given in patent US20240216310A1, “Rapid Onset Therapeutic Anti-Depression Ketosis Enabled by D-BetaHydroxyButyric Acid Systems, Methods and Compounds for Psilocybin co-administration” (American Ketone Therapeutics LLC, priority 2022, published 2024).

Experiments:
[1] = previously known exogenous ketone compounds, from literature; cited from earlier work
[2] = Preliminary data on anxiety and depression after D-BetaHydroxyButyric Acid administration; type: in vivo, human; details: individuals with mild to moderate depression, given in the absence of a salt or ester
Description: Moreover, dietary interventions for ketogenic diet treatment of bipolar disorder are yielding compelling results. The administration of the natural form of D-BetaHydroxyButyric Acid as an exogenous compound has rapid onset and direct benefits to brain bioenergenics. […] The claimed form of D-BetaHydroxyButyric Acid is bioidentical to the natural form of ketone generated endogenously and chemically distinguishable from the artificial ‘ketone salt’ and synthetic ‘ketone ester’. This application discloses two primary embodiments for the treatment of psychiatric depressive disorders: the use of bioidentical or ‘free D-BetaHydroxyButyric Acid’ alone as well as in combination with Psilocybin derived pharmaceuticals.

[3] = Continuous glucose monitoring (Abbot Libre CGM) with carbohydrate challenge; type: in vivo, human; details: 10 g given 45 minutes before 50 g carbohydrate ingestion; compared with unsupplemented ingestion
Description: FIG. 10 is a graphical illustration of continuous monitoring of body glucose levels. FIG. 10 depicts continuous glucose monitoring levels with carbohydrate challenge documented by Abbot Libre Continuous Glucose Monitoring (CGM) device. In this illustrative embodiment, glucose levels from a 50 g carbohydrate ingestion are depicted unaided by free D-BetaHydroxyButyric Acid on the left and repeated the following day with two 50 g carbohydrate ingestions accompanied by 10 g free D-BetaHydroxyButyric Acid administered 45 minutes before the carbohydrate insult. The data is noteworthy in that while the equivalent amount of identical (nacho chip platter) carbohydrates were consumed, the rapid glucose spike depicted in the unsupplemented ingestion is not found with 10 g D-BetaHydroxyButyric Acid accompaniment. […] As free D-BetaHydroxyButyric Acid can lower glucose while rapidly increasing ketone levels, it is believed that obtaining high ketones while lowering glucose will yield additional anti-depression benefits to high glucose sensitive individuals suffering from depression.

[4] = Continuous Ketone Meter (CKM) monitoring of body ketone levels and deep sleep; type: in vivo, human; details: 5 grams consumed 45 minutes prior to bedtime
Description: FIG. 11 is a graphical illustration of continuous monitoring of body ketone levels resulting in improved deep sleep time due to enhanced D-BHB levels according to the claimed invention. It is noteworthy that consumption of even small amounts of free D-BetaHydroxyButyric Acid can give rise to therapeutic ketosis levels as measured by Continuous Ketone Meter (CKM). […] While free D-BetaHydroxyButyric Acid is not a sedative, even small amounts can greatly improve deep sleep quantity and quality. It is an intended and foreseeable embodiment application to increase deep sleep with free D-BetaHydroxyButyric Acid with the aim of improving mental health and anti-depression resiliency.

[5] = Blood ketone levels by Abbott blood test strip after D-BHB oral drink; type: in vivo, human
Description: FIG. 8 is a graphical illustration of D-BHB exogenous ketone blood levels. FIG. 8 details rapid ketosis confirmed by Abbott blood test strip after 15 g D-BHB with palatability agent administered by oral drink. Blood ketone levels document rise from 0.1 mmol/L to 2.7 mmol/L. By supplementing an individual with exogenous ketone preparations incorporating the natural D-Beta-HydroxyButyric Acid (D-BHB) optionally combined with a palatability agent, internal body ketone levels rapidly rise when directly compared with non-supplementing individuals. The ketone body D-BHB is first and foremost an energy source, which is directly and preferentially metabolized by the brain. D-BHB is also active as a signaling mechanism and neuro-inflammation reduction agent, resulting in broad and beneficial mental health related benefits.
FIG. 9 is a graphical illustration of D-BHB exogenous ketone blood levels. FIG. 9 details rapid ketosis within 45 minutes confirmed by Abbott blood test strip after 10 g D-BHB with palatability agent administered by oral drink. Blood ketone levels document rise from 0.2 mmol/L to 1.8 mmol/L and 0.6 mmol/L to 1.9 mmol/L in a variety of test subjects. FIG. 9 reinforces the fact that supplementation by utilizing free D only BetaHydroxyButyric Acid without ketone salt or ketone ester is a reliable, reproducible method and system for rapid ketone level increase for mental health protection and maintenance. While amounts of free D only BetaHydroxyButyric Acid taken for mental health anti-depression effects may vary, it is an anticipated preferred embodiment that levels are between 5 and 30 grams of D only BetaHydroxyButyric Acid taken as needed for optimum anti-depression effects. Alternate embodiments may include lower or higher amounts, however, experimental evidence has confirmed optimal administration in this range.

[6] = Phase 2b clinical trial reported by Compass Pathways; cited from earlier work

C[C@@H](O)CCOC(=O)C[C@@H](C)O [ketone ester, (R)-3-hydroxybutyl (R)-3-hydroxybutyrate]
Ketone increase (blood level) [1]: higher ketone level response

CC(O)CC(=O)O [D-BHB, D-Beta-HydroxyButyric Acid]
Reduction of anxiety and depression [2]: often benefit
Rapid glucose spike after carbohydrate ingestion [3]: not found
Deep sleep quantity [4]: enhance the quantity of deep sleep obtained
Increase in body ketone level ([4]; CKM): 1.5 mmol/L
Time to rapid ketosis ([5]; 10 g D-BHB with palatability agent): ≤ 45 min
Blood ketone level after administration ([5]; 10 g D-BHB with palatability agent, test subject rising from 0.2 mmol/L): 1.8 mmol/L
Blood ketone level after administration ([5]; 10 g D-BHB with palatability agent, test subject rising from 0.6 mmol/L): 1.9 mmol/L
Blood ketone level after administration ([5]; 15 g D-BHB with palatability agent, rise from 0.1 mmol/L): 2.7 mmol/L

CN(C)CCc1c[nH]c2cccc(OP(=O)(O)O)c12 [Comp360]
Outcome in treatment-resistant depression [6]: promising results
